Reference: patent US20240002428A1, “STORAGE STABLE CAGED HAPTENS” (VENTANA MEDICAL SYSTEMS, INC., priority 2021, published 2024)

Test: Hydrolytic stability study of caged haptens at elevated temperature (reverse phase HPLC)
Format: physicochemical
Settings: 100 mM PBS (pH 7.2), 37° C. oven, after 50 days of storage
Description: To study the hydrolytic stability of caged hapten conjugates having any one of Formulas (IVA), (IVB), or (VA)-(VF) (see FIG. 9) model compounds were subjected to a stability study at elevated temperatures.
Model compounds tested were the NP hapten with two different caging groups along with caged DIG, as set forth below:
The samples of caged NP and caged DIG were stored in 100 mM PBS (pH 7.2) in a 37° C. oven. The buffer and pH were representative of storage conditions for an antibody conjugate. A temperature of 37° C. was chosen to stress the sample and accelerate hydrolytic events. Normal storage conditions or the antibody conjugate were believed to be about 4° C. Aliquots of the samples were removed at regular intervals and tested by reverse phase HPLC on a Waters XBridge column on a Waters Alliance e2695 running Empower 3 (Waters). Each sample HPLC trace was examined for evidence of decaging or other forms of decomposition. […] The caged DIG testing was monitored out to 120 days and <0.5% hydrolysis was still observed at this point.

SMILES | hydrolysis (caged hapten hydrolyzed to the native hapten, percentage of the original material) [%]
COc1cc(Cn2nc(C(=O)NCCN)cc2[N+](=O)[O-])cc(OC)c1OP(=O)(O)O [generation 1 caged-NP] | ~15.5
COc1cc(Cn2nc(C(=O)NCCN)cc2[N+](=O)[O-])cc(OC)c1OCOP(=O)(O)O [generation 2 caged-NP] | ~6
